# In paper PMC12691669, “Inhibitors of the 20S proteasome β5 subunit as potent and selective agents against Trichomonas vaginalis” (Antimicrobial Agents and Chemotherapy, 2025):
# “Also recorded” adds a separate entry of the source.
# How the values were obtained:
# [1] = test system: T. vaginalis strain F1623; assay: 24 h growth and survival assay (ATP luminescence, GI50); assay type: cell-based, Trichomonas vaginalis
# Method: The following T. vaginalis strains were used: F1623 ([50]), G3 (ATCC PRA-98), and LA1 ([25]). […] Drug susceptibility assays were performed as described previously ([23]) with several minor modifications. Briefly, 10 mM stocks of the test compounds in DMSO were serially diluted 1:3 using an Echo 650 Acoustic Liquid Handler (Beckman Coulter). Subsequently, trophozoites (5 × 10^3/well) in TYM modified media were added to the wells in 384-well plates, and cultures were incubated for 24 h at 37°C under anaerobic conditions (AnaeroPack-Anaero System; Remel). For testing in mammalian cells, the following cell lines were used: Human cervical cancer cells HeLa (ATCC CCL-2), non-transformed mouse fibroblast cell line 3T3-L1 (ATCC CL-173), normal monkey kidney epithelial cell line Vero (ATCC CCL-81), and human B lymphoma cells Raji (ATCC CCL-86). Test compounds were serially diluted (1:3) and added to mammalian cell cultures grown in 384-well plates, and cultures were incubated for 48 h at 37°C in 5% CO2, 95% air. Growth and viability of T. vaginalis and mammalian cells were determined with an ATP assay by adding the BacTiter-Glo Microbial Cell Viability Assay reagent (Promega) directly to the wells and measuring ATP-dependent luminescence in a microplate reader. […] Experiments were repeated at least three times, and the mean and SEM of the pGI50 values were calculated.
# [2] = target: T1, Human c20S proteasome β5 subunit (Homo sapiens, UniProt P20618+P28074); assay: In vitro proteasome assay, suc-LLVY-amc substrate; assay type: biochemical; details: purified human c20S with PA28α, mean ± SD
# T1 construct: purchased Bio-Techne
# Method: (§1) The T. vaginalis proteasome was expressed in recombinant form as previously described ([27]). Briefly, Spodoptera frugiperda cells were co-infected with three baculovirus vectors carrying the T. vaginalis genes for the 7 α-subunits, 7 β-subunits, and the Ump-1 chaperone, respectively. The resulting proteasome complex was purified from cell lysates via streptavidin column and size exclusion chromatography and stored at −80°C. Purified human c20S proteasome and recombinant human proteasome activator PA28α ([21]) were obtained from Bio-Techne and stored at −80°C. Dilutions of the test agents were transferred to 384-well plates (Greiner Bio-One) in triplicate wells using an Echo 650 Acoustic Liquid Handler (Beckman Coulter). Six replicate plates were prepared for each compound for testing with three T. vaginalis-optimized substrates and three human-optimized substrates. After dispensing, plates were sealed and stored at −20°C. The following fluorescent substrates and final substrate concentrations were used to assay subunit activities of the T. vaginalis proteasome (Tv20S) ([28]) or the human constitutive proteasome (c20S) ([19], [52]): Ac-RYFD-amc (Genscript) at 100 µM for Tv20S β1 subunit, Ac-FRSR-amc (Genscript) at 20 µM for Tv20S β2 subunit, Ac-GWYL-amc (Genscript) at 20 µM for Tv20S β5 subunit, z-LLE-amc (R&D Systems) at 80 µM for c20S β1 subunit, z-VLR-amc (AdipoGen Life Sciences) at 30 µM for c20S β2 subunit, and suc-LLVY-amc (R&D Systems) at 65 µM for c20S β5 subunit. Substrates and proteasomes were diluted in an assay buffer consisting of HEPES pH 7.5 and 1 mM DTT. For the human proteasome assays, 2 nM c20S was incubated at room temperature with 200 nM PA28α for 1 h to activate the complex prior to addition to the 384-well plates containing the substrate-inhibitor mixtures. […] Both proteasomes were added to the wells at a 1 nM final assay concentration. Fluorescence was measured over 4 h at 360 nm excitation and 460 nm emission on a Biotek Synergy HTX plate reader.
# [3] = target: T. vaginalis Tv20S proteasome β5 subunit (Trichomonas vaginalis, UniProt A2DD57+A2F716); assay: biochemical; assay type: biochemical; details: recombinant Tv20S, mean ± SD of three experiments
# Chain of T. vaginalis Tv20S proteasome β5 subunit (A2DD57 entry or part of it): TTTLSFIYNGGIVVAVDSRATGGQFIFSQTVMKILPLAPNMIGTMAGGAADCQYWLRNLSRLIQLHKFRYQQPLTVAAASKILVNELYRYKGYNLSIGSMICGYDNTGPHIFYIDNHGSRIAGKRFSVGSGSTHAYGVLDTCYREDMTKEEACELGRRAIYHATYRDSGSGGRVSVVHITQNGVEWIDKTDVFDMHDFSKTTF
# Chain of T. vaginalis Tv20S proteasome β5 subunit (A2F716 entry or part of it): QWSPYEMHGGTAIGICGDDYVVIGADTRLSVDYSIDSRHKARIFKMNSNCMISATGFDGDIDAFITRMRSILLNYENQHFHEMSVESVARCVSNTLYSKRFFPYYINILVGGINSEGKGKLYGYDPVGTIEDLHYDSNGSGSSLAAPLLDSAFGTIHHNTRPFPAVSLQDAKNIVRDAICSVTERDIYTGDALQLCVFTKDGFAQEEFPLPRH
# Method: as §1
# human cell line HeLa = assay: 48 h cytotoxicity (growth and viability) assay in mammalian cells; assay type: cell-based
# Method: The following T. vaginalis strains were used: F1623 ([50]), G3 (ATCC PRA-98), and LA1 ([25]). Parasites were grown at 37°C in TYM Diamond’s medium supplemented with 180 µM ferrous ammonium sulfate ([51]). Drug susceptibility assays were performed as described previously ([23]) with several minor modifications. Briefly, 10 mM stocks of the test compounds in DMSO were serially diluted 1:3 using an Echo 650 Acoustic Liquid Handler (Beckman Coulter). Subsequently, trophozoites (5 × 10^3/well) in TYM modified media were added to the wells in 384-well plates, and cultures were incubated for 24 h at 37°C under anaerobic conditions (AnaeroPack-Anaero System; Remel). For testing in mammalian cells, the following cell lines were used: Human cervical cancer cells HeLa (ATCC CCL-2), non-transformed mouse fibroblast cell line 3T3-L1 (ATCC CL-173), normal monkey kidney epithelial cell line Vero (ATCC CCL-81), and human B lymphoma cells Raji (ATCC CCL-86). […] Growth and viability of T. vaginalis and mammalian cells were determined with an ATP assay by adding the BacTiter-Glo Microbial Cell Viability Assay reagent (Promega) directly to the wells and measuring ATP-dependent luminescence in a microplate reader. […] Experiments were repeated at least three times, and the mean and SEM of the pGI50 values were calculated.
# [4] = target: T. vaginalis Tv20S proteasome β1 subunit (Trichomonas vaginalis, UniProt A2E7Z2); assay: In vitro proteasome assay, Ac-RYFD-amc substrate; assay type: biochemical; details: recombinant Tv20S, mean ± SD of three experiments
# Chain of T. vaginalis Tv20S proteasome β1 subunit (A2E7Z2 entry or part of it): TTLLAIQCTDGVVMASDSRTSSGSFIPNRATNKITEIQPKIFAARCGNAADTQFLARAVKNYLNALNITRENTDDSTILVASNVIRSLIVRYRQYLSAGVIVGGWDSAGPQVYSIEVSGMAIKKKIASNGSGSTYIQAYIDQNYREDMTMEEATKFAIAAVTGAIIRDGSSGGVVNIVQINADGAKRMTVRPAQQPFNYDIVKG
# Method: as §1
# [5] = test system: T. vaginalis Tv20S proteasome β2 subunit; assay: In vitro proteasome assay, Ac-FRSR-amc substrate; assay type: biochemical, Trichomonas vaginalis; details: recombinant Tv20S, mean ± SD of three experiments
# Method: as §1
# [6] = target: T2, Human c20S proteasome β2 subunit (Homo sapiens, UniProt P49720+Q99436); assay: In vitro proteasome assay, z-VLR-amc substrate; assay type: biochemical; details: purified human c20S with PA28α, mean ± SD
# T2 construct: purchased Bio-Techne
# Method: as §1
# [7] = target: T3, Human c20S proteasome β1 subunit (Homo sapiens, UniProt P28072+Q99436); assay: In vitro proteasome assay, z-LLE-amc substrate; assay type: biochemical; details: purified human c20S with PA28α, mean ± SD
# T3 construct: purchased Bio-Techne
# Method: as §1
# [8] = parameters: method as in PMID 30380863, PMID 36969170; details: at therapeutic concentrations; cited from earlier work
smiles,measurement,setting,value
C=C(C)C(=O)[C@H](Cc1ccccc1)NC(=O)[C@H](Cc1ccc(OC)cc1)NC(=O)[C@H](C)NC(=O)C1=C(C)c2ccccc2C1 [compound 104],growth inhibitory activity against T. vaginalis (in words),[1]; F1623,only minimally inhibitory
same,SI (ratio of GI50 in HeLa cells over GI50 in T. vaginalis),[1]; T. vaginalis F1623 vs human HeLa cells,1.05
same,Human c20S proteasome inhibition of β5 subunit (IC50),[2],no inhibitory activity; also recorded: No inhibition
same,Tv20S proteasome inhibition of β5 subunit (IC50),[3],did not inhibit; also recorded: No inhibition
same,growth inhibitory activity against human cells (in words),human cell line HeLa,only minimally inhibitory
same,Tv20S proteasome inhibition of β1 subunit (IC50),[4],did not inhibit; also recorded: No inhibition
same,Tv20S proteasome inhibition of β2 subunit (IC50),[5],did not inhibit; also recorded: No inhibition
same,Human c20S proteasome inhibition of β2 subunit (IC50),[6],no inhibitory activity; also recorded: No inhibition
same,Human c20S proteasome inhibition of β1 subunit (IC50),[7],no inhibitory activity; also recorded: No inhibition
"COc1ccc([C@@H](O)[C@H](NC(=O)[C@H](C)NC(=O)CN2CCOCC2)C(=O)N[C@@H](CC2=CCCC2)C(=O)[C@@]2(C)CO2)cc1 [zetomipzomib, (2 S,3 R)-N-((S)-3-(Cyclopent-1-en-1-yl)-1-((R)-2-methyloxiran-2-yl)-1-oxopropan-2-yl)-3-hydroxy-3-(4-methoxyphenyl)-2-((S)-2-(2-morpholinoacetamido)propanamido)propenamide]",effect on T-dependent antibody responses or number of circulating lymphocytes,[8],did not significantly affect
